Columns and labels:
Assay type in all cases: cell-based, Chlamydomonas reinhardtii
mVenus [1] = assay: mVenus expression after 6-day treatment with SAHA analogs and other HDAC inhibitors (96 well liquid culture, flow cytometry and plate reader); conditions: for expression of the transgene: mVenus transgene in Chlamydomonas reinhardtii, compared with other histone deacetylase inhibitors; for frequency of mVenus-positive cells / increase of amount of mVenus inside each cell (mean fluorescence intensity) / increase of frequency of mVenus-positive cells: day 3 post-treatment
Procedure: For the SAHA (vorinostat), belinostat, dacinostat, panobinostat, mocetinostat, entinostat, and romidepsin series of treatments (comparison between various SAHA analogs and other HDAC inhibitors), inoculums of 10^5 cells in late exponential phase of growth were transferred in 200 μL of TAP medium in 96 well plates and were treated with 5 μM of each histone deacetylase inhibitor for 6 days. DMSO was used as a negative control.
(§1) Growth curves were obtained using a Synergy H1 plate reader (Biotek, Agilent), from two or three biological replicates for each strain studied as in (Molino et al., 2022). For SAHA main treatments, 250 μL samples of 50 mL cultures were added in 96 well flat bottom microplates (Corning Costar 96-Well, Cell Culture-Treated, Fisher Scientifics). The OD absorbance was read at 750 nm. Bottom read scan mode mean fluorescence was measured with Excitation (Ex): 500 nm/Emission (Em): 541 nm for mVenus; and bottom read fluorescence Ex: 475 nm/Em: 650 nm for chlorophyll.
(§2) A Cytomics FC500 cytometer equipped with Argon (488 nm) and HeNe (633 nm) lasers were used to measure mVenus emission on the FL1 channel (525/15 nm), and chloroplast fluorescence on the FL4 channel (675/15 nm) (Beckman Coulter Life Sciences). At least 10 000 events were acquired. A homogeneous cloud of intact cells was first gated based on size (FSC) and granulosity (SSC). Then a daughter gate selected the cloud of cells with homogenous chlorophyll autofluorescence. The % of mVenus^+ cells was measured on this daughter population with a gate in the FL1 channel that excluded cells with autofluorescence levels similar to the negative controls. Cells were considered mVenus^+ when both the % of gated mVenus^+ cells (and >0.1%) and mVenus mean fluorescence intensity were higher than the values of the WT controls. Propidium iodide (Thermo Fisher) was used to verify viability and acquired on the FL3 channel (620/20 nm). To select for palmelloid cells, a second gate that included events with a minimum of 2-fold increase in FSC mean intensity was drawn, similarly to (Cheloni and Slaveykova, 2021). In that case, cells were acquired on a Beckman Cytoflex S equipped with violet (405 nm), blue (488 nm), yellow-green (561 nm) and red (638 nm) lasers. Chlorophyll autofluorescence was detected in the PerCP channel (690/50 nm), mVenus on the FITC (525/40BP). Statistics were obtained using BD FlowJo version 10 software (BD Biosciences, La Jolla, CA, USA, 2020).

C. reinhardtii [2] = assay: Chlorophyll content observed by culture colour at higher SAHA concentrations
C. reinhardtii [3] = assay: Cell viability (membrane integrity) by propidium iodide staining, flow cytometry; conditions: SAHA 2.5, 5 and 10 μM, day 6
Procedure: (§3) For the SAHA main treatments, inoculum of 10^5 cells in late exponential phase of growth were transferred in 50 mL of TAP medium in 125 mL shake flasks and were treated with 5 μM for 12 days (to evaluate mVenus expression overtime), or with 2.5, 5 and 10 μM for 6 days (to evaluate SAHA toxicity over cell viability). DMSO was used as a negative control.
as §2, with “To select for palmelloid cells, a second gate that included events with a minimum of 2-fold increase in FSC mean intensity was drawn, similarly to (Cheloni and Slaveykova, 2021). In that case, cells were acquired on a Beckman Cytoflex S equipped with violet (405 nm), blue (488 nm), yellow-green (561 nm) and red (638 nm) lasers.” left out, “Statistics were obtained using BD FlowJo version 10 software (BD Biosciences, La Jolla, CA, USA, 2020).” left out

mVenus [4] = assay: mVenus expression after one year of storage, 72 h treatment with histone deacetylase inhibitors (flow cytometry); conditions: SAHA 5 μM, cells stored for one year after transformation
Text: as §2, with “Statistics were obtained using BD FlowJo version 10 software (BD Biosciences, La Jolla, CA, USA, 2020).” left out

mVenus [5] = assay: mVenus expression followed over 12 days after SAHA treatment in flask cultures (microplate reader and flow cytometer)
Procedure: as §3, §1, §2

mVenus mRNA = mVenus mRNA relative expression by RT-qPCR (normalized on histone H3); conditions: day 6
Procedure: 4 mL of a 6 days C. reinhardtii grown culture were harvested and centrifuged in Eppendorf tube for 5 min at 4000 g. Cells were lysed by immersion in liquid nitrogen for 1 min. Total RNA was extracted using Invitrogen™ TRIzol™ reagent (Life technologies, Thermo Fisher Scientifics) according to the manufacturer's protocol with minor modifications, including the addition of NaCl at a final concentration of 100 mM in the isopropanol at the nucleic acids precipitation step. Samples were further treated with Turbo DNase (Invitrogen™ TURBO DNA-free™ Kit, Thermo Fisher Scientifics) according to the manufacturer's instructions. RNA yield and quality were determined with 260 nm/280 nm absorbance ratio obtained on a Nanodrop instrument (Thermo Fisher Scientific). Samples of <100 ng total RNA were subjected to reverse transcription and qPCR amplification in a single reaction using the Luna® Universal One-Step RT-qPCR Kit Protocol (New England Biolabs Canada). Briefly, 1 μl of RNA were subjected to reverse transcription performed at 55° C. for 10 minutes. Initial denaturation was 1 min at 95° C. followed by 45 cycles of denaturation for 10 seconds, extension for 30 seconds at 60° C. […] SYBR Green fluorescence was recorded in the FAM channel of a CFX connect real time system (BioRad). […] Relative mRNA expression levels were determined according to the 2^(−ddCt) method.

mVenus [6] = assay: mVenus expression by flow cytometry after 24 h treatment with silencing inhibitors (96 well liquid culture)
Procedure: For the sirtinol, SAHA, OSS-128167, nicotinamide and sodium butyrate series of treatments (comparison between various HDAC inhibitors), inoculums of 10^5 cells in late exponential phase of growth were transferred in 200 μL of TAP medium in 96 well plates and were treated with 50 μM, 2.5 μM, 100 μM, 1 mM and 5 mM of each histone deacetylase inhibitor respectively for 24 hours; a mix of all inhibitors was also tested. DMSO was used as a negative control.
as §2

C. reinhardtii [7] = assay: Growth curve / growth kinetic (OD 750 nm)
Procedure: […] DMSO was used as a negative control.
as §1

C. reinhardtii [8] = assay: Palmelloid colony formation and motility (microscopy, flow cytometry)
Procedure: as §3, §2

[9] = SAHA 5 μM, compared to untreated or DMSO treated cells
[10] = SAHA 2.5 μM, transformed clones

With O=C(/C=C/c1cccc(S(=O)(=O)Nc2ccccc2)c1)NO [Belinostat, (2E)-N-Hydroxy-3-[3-(phenylsulfamoyl)phenyl]prop-2-enamide] the “expression of the transgene” value (mVenus [1]) was “substantially increase”.

For Cc1[nH]c2ccccc2c1CCNCc1ccc(/C=C/C(=O)NO)cc1 [Panobinostat, (2E)-N-hydroxy-3-[4-({[2-(2-methyl-1H-indol-3-yl)ethyl]amino}methyl)phenyl]acrylamide], the “expression of the transgene” value (mVenus [1]) was “substantially increase”.

With O=C(CCCCCCC(=O)Nc1ccccc1)NO [SAHA, N-hydroxy-N′-phenyloctanediamide] the “chlorophyll content, culture colour” value (C. reinhardtii [2]; 80 μM SAHA) was “red tint”, the “chlorophyll content, culture colour” value (C. reinhardtii [2]; 20 and 40 μM SAHA) was “more yellow tint” and the “% of PI+ cells” value (C. reinhardtii [3]) was “slightly increased”. For the same compound, the “% of transformant cells remaining intact” value (C. reinhardtii [3]) was ~ 90%, the “frequency of cells expressing mVenus” value (mVenus [4]) was “increased” and the mVenus fluorescence (mVenus [5]; SAHA 5 μM at day 0, around day 4-5, all clones) was “steadily increased”. For the same compound, the “transgene expression over culture period” value (mVenus [5]; SAHA 5 μM, 12 days, flask cultures) was “steadily increases”, the “decline in mVenus production in stationary phase” value (mVenus [5]; SAHA 5 μM, around day 7-8) was “did not prevent the progressive decline in production” and the “mVenus fluorescence per cell at day 12” value (mVenus [5]; [9]) was “more mVenus fluorescence per cells”. The “population of mVenus expressing cells at day 12” value (mVenus [5]; [9]) was “more frequent population of mVenus expressing cells”, the “% of producing cells (mVenus+) at maximum production” value (mVenus [5]; SAHA 5 μM, day 5-7, all the clones) was “more than 74%” and the “time of maximum production of mVenus” value (mVenus [5]; SAHA 5 μM, end of the exponential phase) was 5 to 7 days. The “% mVenus+ cells at day 12” value (mVenus [5]; SAHA 5 μM, most clones (except 16)) was less than 10%, the “increase of relative mVenus mRNA expression over histone H3 mRNA” value (mVenus mRNA; clone 16, SAHA 5 μM) was 7 fold and the “increase of relative mVenus mRNA expression over histone H3 mRNA” value (mVenus mRNA; clone 17, SAHA 5 μM) was 6.6 fold. For the same compound, the “frequency of mVenus-positive cells” value (mVenus [1]; clone 16, 5 μM) was 73.1%, the “increase of amount of mVenus inside each cell (mean fluorescence intensity)” value (mVenus [1]; clone 16, 5 μM) was 3-4 fold and the “increase of frequency of mVenus-positive cells” value (mVenus [1]; clone 16, 5 μM) was 8.6 fold. For the same compound, the “frequency of mVenus-positive cells” value (mVenus [1]; clone 17, 5 μM) was 59.9%, the “increase of amount of mVenus inside each cell (mean fluorescence intensity)” value (mVenus [1]; clone 17, 5 μM) was 2-5 fold and the “increase of frequency of mVenus-positive cells” value (mVenus [1]; clone 17, 5 μM) was 27 fold. For the same compound, the “expression of the transgene” value (mVenus [1]) was “substantially increase”, the “frequency of cells expressing mVenus” value (mVenus [6]; [10]) was “increased” and the “level of expression of mVenus per cell” value (mVenus [6]; [10]) was “increased”. For the same compound, the “% of mVenus cells” value (mVenus [6]; clone 16, SAHA 2.5 μM) was 68.1%, the “increase in protein expression (mean fluorescence intensity)” value (mVenus [6]; clone 16, SAHA 2.5 μM) was 4.6 fold and the “increase of % of mVenus cells” value (mVenus [6]; clone 16, SAHA 2.5 μM, versus 13.3% without SAHA) was 5.1 fold. The growth kinetic (C. reinhardtii [7]; 80 μM SAHA) was “totally inhibited”, the growth kinetic (C. reinhardtii [7]; 20 and 40 μM SAHA) was “inhibited partially” and the “overall growth of microalgae” value (C. reinhardtii [7]; SAHA 5 μM, 12 days) was “did not impact the overall growth”. For the same compound, the “palmelloid colonies quantified by flow cytometry” value (C. reinhardtii [8]; SAHA 5 μM, day 3 and 6 post-treatment, in most cases) was “increased”, the “palmelloid colonies (microscopy)” value (C. reinhardtii [8]; SAHA 5 and 10 μM, 6 days) was “accumulation of small palmelloid colonies” and the “palmelloid colonies (microscopy)” value (C. reinhardtii [8]; SAHA 20, 40 and 80 μM, increasing concentrations) was “Larger palmelloid colonies”. The motility (C. reinhardtii [8]; SAHA above 2.5 μM) was “progressively lost” and the “phenotype induced in C. reinhardtii” value (C. reinhardtii [8]; SAHA, FIG. 6) was “induces a palmelloid phenotype”.

In the case of O=C(/C=C/c1ccc(CN(CCO)CCc2c[nH]c3ccccc23)cc1)NO [Dacinostat, (E)-N-hydroxy-3-[4-[[2-hydroxyethyl-[2-(1H-indol-3-yl)ethyl]amino]methyl]phenyl]prop-2-enamide], the “expression of the transgene” value (mVenus [1]) is reported as “substantially increase”.
